Data reported in patent publication US6906069B1, “LXR modulators” (Amgen Inc., priority 1999, dated 2005).

Target: T1, LXRα (Homo sapiens, UniProt Q13133)
T1 construct: expressed in transfected cells; host or cells: 293 cells
T1 sequence (Q13133 209-447 limits assumed): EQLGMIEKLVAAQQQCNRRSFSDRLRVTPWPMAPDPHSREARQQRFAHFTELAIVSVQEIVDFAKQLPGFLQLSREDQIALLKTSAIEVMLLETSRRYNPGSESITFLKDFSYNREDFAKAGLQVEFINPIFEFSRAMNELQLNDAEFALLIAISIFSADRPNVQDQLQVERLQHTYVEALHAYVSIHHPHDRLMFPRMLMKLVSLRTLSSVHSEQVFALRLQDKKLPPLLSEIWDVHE
Assay: cell-based GAL4-LXRα ligand-binding domain luciferase reporter screen for agonists
Details: 10 μM compound; transfected 293 cells; relative to control (no additional compound) assigned a value of 1
Method: In order to identify agonists for LXRα, a cell-based high throughput screen was developed. Briefly, a DNA-binding domain of the nonreceptor transcription factor GAL4 was fused to the putative ligand-binding domain of LXRα. The resulting construct was introduced into 293 cells, together with an UAS-containing luciferase reporter construct. The transfected cells were then treated with the compounds and luciferase activity was measured. Individual compounds were evaluated relative to a control (no additional compound) at a concentration of 10 μM. Relative luciferase activity is provided below for five of the compounds described in the Examples above (luciferase activity of the control was assigned a value of 1).

Structure (SMILES) | Relative Activity (relative luciferase activity)
CC(c1ccccn1)N(C(=O)C1(C)CCCCC1)C(C)c1ccco1 (centres unmarked) [Example 5] | ≧10
CC(c1ccco1)N(C(=O)C12CC3CC(CC(C3)C1)C2)c1ccncc1 (centres unmarked) [Example 3] | ≧10

More lines, now with the values ahead:

Relative Activity (relative luciferase activity) | Structure (SMILES)
5 | CC(c1ccco1)N(C(=O)C12CC3CC(CC(C3)C1)C2)c1cccnc1 (centres unmarked) [Example 2]
3 | CC(c1ccco1)N(C(=O)C12CC3CC(CC(C3)C1)C2)c1ccccc1 (centres unmarked) [Example 4]
4 | CC(c1ccco1)N(C(=O)C12CC3CC(CC(C3)C1)C2)c1ccccn1 (centres unmarked) [Example 1]
